Values of other authors in PMC2862725 (Molecular cancer therapeutics, 2009).
Like-named read-outs stand apart in the source and are kept apart here.

Key:
[1] = vIII mutant tumor group; set equal to single-dose PK/PD model ref 9
[2] = n = 5, two patients with malignant gliomas
[3] = wild-type tumor group; set equal to single-dose PK/PD model ref 9

## COc1cc2ncnc(Nc3ccc(F)c(Cl)c3)c2cc1OCCCN1CCOCC1 [gefitinib, Gefitinib]
[1]
  Vc volume of distribution of the central compartment: 103.8 mL
[2]
  gefitinib brain tumor concentration, mean: 9.4 ± 9.3 µg/g
[3]
  Vc volume of distribution of the central compartment: 75.0 mL
